Experimental data: patent US20260248920A1, “COMPOSITION FOR PREVENTING OR TREATING INFLAMMATORY DISEASES, CONTAINING POLY(ORGANOPHOSPHAZENE) POLYMER” (KOREA INSTITUTE OF SCIENCE AND TECHNOLOGY, priority 2022, published 2026)
Like-named read-outs stand apart in the source and are kept apart here.

Columns and labels:
[1] = test system: anti-inflammatory cytokines IL-4 and IL-10; test: RT-PCR of blood in defective Achilles tendon model: anti-inflammatory cytokines; assay type: in vivo, mice; settings: 4 weeks
[2] = test system: defective Achilles tendon model; test: Hydroxyproline content analysis of tendon tissue; assay type: in vivo, mouse
Protocol: All experiments using mice were conducted in compliance with the relevant laws and institutional guidelines of the Institutional Animal Care and Use Committee (IACUC) of Korea University Medical Center and received IACUC approval (Approval No. KOREA-2018-0049). […] […] 1 mg) and […] […] To hydrolyze the tendon tissue, 5 mg was immersed in a 6N HCl solution and then heated at 120° C. for 3 hours. After hydrolysis, the tendon tissue was centrifuged at 3000 rpm for 3 minutes, and the supernatant was collected and transferred to a 96-well plate. Thereafter, the 96-well plate was incubated in a dry oven at 60° C. for 12 hours. A Chloramine T reagent (6 μL) was mixed with an oxidation buffer (94 μL), and the mixture was added to each sample or a standard solution. The resulting solution was slowly transferred to a 96-well plate, and a p-dimethylaminobenzaldehyde reagent (100 μL) was added to each sample or standard, and then incubated at 60° C. for 90 minutes. The hydroxyproline content was measured at an optical density of […] using a Flash Multimode Reader (VarioskanTM, Thermo Scientific, USA).

[3] = test system: defective Achilles tendon model; test: Biomechanical test of Achilles tendon (stiffness, tensile strength); assay type: in vivo, rats
[4] = cited from earlier work
[5] = in vivo; cited from earlier work

## Cc1ccc(-c2cc(C(F)(F)F)nn2-c2ccc(S(N)(=O)=O)cc2)cc1 [CXB, Celecoxib]
[1]; treated once
  IL-4 expression increase compared with control group: 1.2 fold
  IL-10 expression increase compared with control group: 1.3 fold
[1]; treated three times
  IL-4 expression increase compared with control group: 1.3 fold
  IL-10 expression increase compared with control group: 1.5 fold
[2]; injected once per week
  hydroxyproline content: 15.3 µg/mg
[2]; injected three times per week
  hydroxyproline content: 17.2 µg/mg
[3]; injected once per week
  stiffness: 16.4 N/mm
  tensile strength: 12.5 MPa
[3]; injected three times per week
  stiffness: 18.6 N/mm

## CC1(C)O[C@@H]2C[C@H]3[C@@H]4CCC5=CC(=O)C=C[C@]5(C)[C@@]4(F)[C@@H](O)C[C@]3(C)[C@]2(C(=O)CO)O1 [TCA, triamcinolone acetonide]
[4]; in vivo
  half-life: 1.47 h
[5]
  half-life of TCA without a delivery carrier: 1.27 h

## O=C(O)Cc1ccccc1Nc1c(Cl)cccc1Cl [diclofenac]
[4]; direct IA administration, reported by Larsen et al.
  half-life: 5.2 h
